# Data: US20070232563A1, “Method for Enhancing Biological Activity and/or Expanding Suitable Region for Biological Activity of Living Body Contacting with Aqueous Environment” (Kabushiki Kaisha Hayashibara Seibutsu Kagaku Kenky, priority 2004, published 2007)
# What was measured:
# [1] = system: short-necked clam (Ruditapes philippinarum); experiment: Biological activity of short-necked clam (aqueduct extension score) in aqueous mineral solutions; assay type: in vivo; details: for Judgment score of biological activity: Experiment 2; for Judgment score for biological activity: total of 18 clams, 16 h
# Protocol: Suitable region for biological activity of short-necked clam (Ruditapes philippinarum), as a fish or shellfish living in seawater, was examined by adding various saccharides to mineral aqueous solutions with various concentrations. In detail, solar salt (85% by weight of sodium chloride and 15% by weight of magnesium) as minerals was dissolved in running water kept in a container for two days to give final concentrations described in the following Table 1. Saccharide (any one of D-glucose, maltose, sucrose, maltitol, α,α-trehalose, α-maltosyl α,α-trehalose, maltotetraose and cyclic tetrasaccharide) was dissolved in the resulting salt solutions to give a final concentration of 1 w/v %, on a dry solid basis. Each of the resulting solutions was placed in a plastic bat. Eighteen pre-selected active short-necked clam in one group were placed in the bat. The bat was shaded with a black cloth and left at ambient temperature (18° C.) for 16 hours. As a control, an aqueous solar salt solution without any saccharides was prepared. Saccharides except for α-maltosyl α,α-trehalose as a saccharide derivatives thereof and cyclic tetrasaccharide were chosen from commercialized products. α-Maltosyl α,α-trehalose as saccharide derivatives of α,α-trehalose in a powder form with a purity of 98 w/w % or over was prepared by the method disclosed in Experiment 4 in Japanese Patent Kokai No. 143876/1995. Cyclic tetrasaccharide in a crystalline form with a purity of 98 w/w % or over, on a dry solid basis, was prepared by the method disclosed in Example A-7 in International Patent Publication No. WO02/10361. Influence of various saccharides was judged by observing the degree of extending aqueduct of the shellfish; 3 points: its aqueduct is well extended; 2 points: its aqueduct is slightly extended; 1 point: its aqueduct is not extended but its shells are opened; 0 point: its shells are closed. The effect on biological activity was judged by the total point of 18 shellfishes. To investigate the effective concentration range of α,α-trehalose or α-maltosyl α,α-trehalose against a mineral solution with a concentration of 1.5 w/v % or 4.5 w/v %, where α,α-trehalose or α-maltosyl α,α-trehalose was remarkably effective in Experiment 1, the following experiment using α,α-trehalose or α-maltosyl α,α-trehalose at a concentration of 0.01, 0.1, 1, 2, 3 or 4 w/v % was carried out according to the method in Experiment 1. As a control, mineral aqueous solutions with a concentration of 1.5 w/v % or 4.5 w/v % without any of the saccharides were prepared and carried out in the same manner.
# unpolished rice = experiment: Germination of unpolished rice in aqueous mineral solution; assay type: in vivo
# Protocol: Suitable mineral range of aqueous mineral solutions containing saccharides was examined by using unpolished rice as an agricultural product. In detail, a commercialized purified salt as a mineral was dissolved in tap water to give a final concentration of 0.5, 1.0, 1.5, or 2.0 as described in the following Table 6. α,α-Trehalose or α-maltosyl α,α-trehalose was dissolved in the resulting solutions to give a final concentration of 1 w/v %, on a dry solid basis. Absorbent cotton was allowed to absorb the resulting solution in an appropriate amount and placed in a plastic laboratory dish with a cover. Commercialized unpolished rice grains were placed on the cotton in the dish by 20 grains per group and kept at ambient temperature (25° C.) under a light-shaded condition by covering with a black cloth. As controls, an aqueous mineral solution without saccharides, and water without saccharides and minerals were prepared. […] Effective concentration of α,α-trehalose or α-maltosyl α,α-trehalose on expanding suitable region for biological activity of unpolished rice grains were determined by examining the number of germinated unpolished rice grains and germination time as an index in accordance with the method in Experiment 6 in the aqueous mineral solution with mineral concentration of 1.5 w/v %, where α,α-trehalose or α-maltosyl α,α-trehalose was effective in Experiment 6, containing α,α-trehalose or α-maltosyl α,α-trehalose in a concentration of 0.01, 0.1, 1, 2, 3, 4 or 6 w/v %, on a dry solid basis. As a control, water without saccharides or minerals was used.
# [2] = mineral 1.5 w/v %, saccharide 1 w/v %
# [3] = mineral 4.5 w/v %, saccharide 1 w/v %
smiles,measurement,setting,value
"OC[C@H]1O[C@H](O[C@H]2O[C@H](CO)[C@@H](O[C@H]3O[C@H](CO)[C@@H](O[C@H]4O[C@H](CO)[C@@H](O)[C@H](O)[C@H]4O)[C@H](O)[C@H]3O)[C@H](O)[C@H]2O)[C@H](O)[C@@H](O)[C@@H]1O [α-Maltosyl α,α-trehalose, α-maltosyl α,α-trehalose]",Judgment score of biological activity,"[1]; mineral 1.5 w/v %, saccharide 0.01 w/v %",18
same,Judgment score of biological activity,"[1]; mineral 1.5 w/v %, saccharide 0.1 w/v %",35
same,Judgment score of biological activity,[1]; [2],41
same,Judgment score of biological activity,"[1]; mineral 1.5 w/v %, saccharide 2 w/v %",43
same,Judgment score of biological activity,"[1]; mineral 1.5 w/v %, saccharide 3 w/v %",34
same,Judgment score of biological activity,"[1]; mineral 1.5 w/v %, saccharide 4 w/v %",16
same,Judgment score of biological activity,"[1]; mineral 4.5 w/v %, saccharide 0.01 w/v %",16
same,Judgment score of biological activity,"[1]; mineral 4.5 w/v %, saccharide 0.1 w/v %",37
same,Judgment score of biological activity,[1]; [3],44
same,Judgment score of biological activity,"[1]; mineral 4.5 w/v %, saccharide 2 w/v %",45
same,Judgment score of biological activity,"[1]; mineral 4.5 w/v %, saccharide 3 w/v %",30
same,Judgment score of biological activity,"[1]; mineral 4.5 w/v %, saccharide 4 w/v %",15
same,Judgment score for biological activity,"[1]; mineral 0 w/v %, saccharide 1 w/v %",11
same,Judgment score for biological activity,"[1]; mineral 0.5 w/v %, saccharide 1 w/v %",14
same,Judgment score for biological activity,"[1]; mineral 1.0 w/v %, saccharide 1 w/v %",36
same,Judgment score for biological activity,[1]; [2],40
same,Judgment score for biological activity,"[1]; mineral 2.0 w/v %, saccharide 1 w/v %",45
same,Judgment score for biological activity,"[1]; mineral 2.5 w/v %, saccharide 1 w/v %",49
same,Judgment score for biological activity,"[1]; mineral 3.0 w/v %, saccharide 1 w/v %",53
same,Judgment score for biological activity,"[1]; mineral 3.5 w/v %, saccharide 1 w/v %",50
same,Judgment score for biological activity,"[1]; mineral 4.0 w/v %, saccharide 1 w/v %",47
same,Judgment score for biological activity,[1]; [3],45
same,Judgment score for biological activity,"[1]; mineral 5.0 w/v %, saccharide 1 w/v %",33
same,Judgment score for biological activity,"[1]; mineral 5.5 w/v %, saccharide 1 w/v %",11
same,Judgment score for biological activity,"[1]; mineral 6.0 w/v %, saccharide 1 w/v %",2
same,Germinated grains (Number),"unpolished rice; Experiment 7, mineral 1.5 w/v %, saccharide 0.01 w/v %, 48 hours",0
same,Germinated grains (Number),"unpolished rice; Experiment 7, mineral 1.5 w/v %, saccharide 0.01 w/v %, 72 hours",2
same,Germinated grains (Number),"unpolished rice; Experiment 7, mineral 1.5 w/v %, saccharide 0.01 w/v %, 96 hours",2
same,Germinated grains (Number),"unpolished rice; Experiment 7, mineral 1.5 w/v %, saccharide 0.01 w/v %, 120 hours",2
same,Germinated grains (Number),"unpolished rice; Experiment 7, mineral 1.5 w/v %, saccharide 0.1 w/v %, 48 hours",0
same,Germinated grains (Number),"unpolished rice; Experiment 7, mineral 1.5 w/v %, saccharide 0.1 w/v %, 72 hours",2
same,Germinated grains (Number),"unpolished rice; Experiment 7, mineral 1.5 w/v %, saccharide 0.1 w/v %, 96 hours",4
same,Germinated grains (Number),"unpolished rice; Experiment 7, mineral 1.5 w/v %, saccharide 0.1 w/v %, 120 hours",5
same,Germinated grains (Number),"unpolished rice; Experiment 7, mineral 1.5 w/v %, saccharide 1 w/v %, 48 hours",1
same,Germinated grains (Number),"unpolished rice; Experiment 7, mineral 1.5 w/v %, saccharide 1 w/v %, 72 hours",3
same,Germinated grains (Number),"unpolished rice; Experiment 7, mineral 1.5 w/v %, saccharide 1 w/v %, 96 hours",5
same,Germinated grains (Number),"unpolished rice; Experiment 7, mineral 1.5 w/v %, saccharide 1 w/v %, 120 hours",5
same,Germinated grains (Number),"unpolished rice; Experiment 7, mineral 1.5 w/v %, saccharide 2 w/v %, 48 hours",1
same,Germinated grains (Number),"unpolished rice; Experiment 7, mineral 1.5 w/v %, saccharide 2 w/v %, 72 hours",6
same,Germinated grains (Number),"unpolished rice; Experiment 7, mineral 1.5 w/v %, saccharide 2 w/v %, 96 hours",6
same,Germinated grains (Number),"unpolished rice; Experiment 7, mineral 1.5 w/v %, saccharide 2 w/v %, 120 hours",6
same,Germinated grains (Number),"unpolished rice; Experiment 7, mineral 1.5 w/v %, saccharide 3 w/v %, 48 hours",1
same,Germinated grains (Number),"unpolished rice; Experiment 7, mineral 1.5 w/v %, saccharide 3 w/v %, 72 hours",4
same,Germinated grains (Number),"unpolished rice; Experiment 7, mineral 1.5 w/v %, saccharide 3 w/v %, 96 hours",5
same,Germinated grains (Number),"unpolished rice; Experiment 7, mineral 1.5 w/v %, saccharide 3 w/v %, 120 hours",5
same,Germinated grains (Number),"unpolished rice; Experiment 7, mineral 1.5 w/v %, saccharide 4 w/v %, 48 hours",0
same,Germinated grains (Number),"unpolished rice; Experiment 7, mineral 1.5 w/v %, saccharide 4 w/v %, 72 hours",3
same,Germinated grains (Number),"unpolished rice; Experiment 7, mineral 1.5 w/v %, saccharide 4 w/v %, 96 hours",3
same,Germinated grains (Number),"unpolished rice; Experiment 7, mineral 1.5 w/v %, saccharide 4 w/v %, 120 hours",3
same,Germinated grains (Number),"unpolished rice; Experiment 7, mineral 1.5 w/v %, saccharide 6 w/v %, 48 hours",0
same,Germinated grains (Number),"unpolished rice; Experiment 7, mineral 1.5 w/v %, saccharide 6 w/v %, 72 hours",0
same,Germinated grains (Number),"unpolished rice; Experiment 7, mineral 1.5 w/v %, saccharide 6 w/v %, 96 hours",1
same,Germinated grains (Number),"unpolished rice; Experiment 7, mineral 1.5 w/v %, saccharide 6 w/v %, 120 hours",1
same,Germinated grains (Number),"unpolished rice; mineral 0.5 w/v %, saccharide 1 w/v %, 24 hours, 20 grains",0
same,Germinated grains (Number),"unpolished rice; mineral 0.5 w/v %, saccharide 1 w/v %, 48 hours, 20 grains",15
same,Germinated grains (Number),"unpolished rice; mineral 0.5 w/v %, saccharide 1 w/v %, 72 hours, 20 grains",19
same,Germinated grains (Number),"unpolished rice; mineral 0.5 w/v %, saccharide 1 w/v %, 96 hours, 20 grains",20
same,Germinated grains (Number),"unpolished rice; mineral 0.5 w/v %, saccharide 1 w/v %, 120 hours, 20 grains",20
same,Germinated grains (Number),"unpolished rice; mineral 1.0 w/v %, saccharide 1 w/v %, 24 hours, 20 grains",0
same,Germinated grains (Number),"unpolished rice; mineral 1.0 w/v %, saccharide 1 w/v %, 48 hours, 20 grains",3
same,Germinated grains (Number),"unpolished rice; mineral 1.0 w/v %, saccharide 1 w/v %, 72 hours, 20 grains",10
same,Germinated grains (Number),"unpolished rice; mineral 1.0 w/v %, saccharide 1 w/v %, 96 hours, 20 grains",16
same,Germinated grains (Number),"unpolished rice; mineral 1.0 w/v %, saccharide 1 w/v %, 120 hours, 20 grains",16
same,Germinated grains (Number),"unpolished rice; mineral 1.5 w/v %, saccharide 1 w/v %, 24 hours, 20 grains",0
same,Germinated grains (Number),"unpolished rice; mineral 1.5 w/v %, saccharide 1 w/v %, 48 hours, 20 grains",1
same,Germinated grains (Number),"unpolished rice; mineral 1.5 w/v %, saccharide 1 w/v %, 72 hours, 20 grains",3
same,Germinated grains (Number),"unpolished rice; mineral 1.5 w/v %, saccharide 1 w/v %, 96 hours, 20 grains",5
same,Germinated grains (Number),"unpolished rice; mineral 1.5 w/v %, saccharide 1 w/v %, 120 hours, 20 grains",5
same,Germinated grains (Number),"unpolished rice; mineral 2.0 w/v %, saccharide 1 w/v %, 24 hours, 20 grains",0
same,Germinated grains (Number),"unpolished rice; mineral 2.0 w/v %, saccharide 1 w/v %, 48 hours, 20 grains",0
same,Germinated grains (Number),"unpolished rice; mineral 2.0 w/v %, saccharide 1 w/v %, 72 hours, 20 grains",0
same,Germinated grains (Number),"unpolished rice; mineral 2.0 w/v %, saccharide 1 w/v %, 96 hours, 20 grains",0
same,Germinated grains (Number),"unpolished rice; mineral 2.0 w/v %, saccharide 1 w/v %, 120 hours, 20 grains",0
